According to PubChem BioAssay AID248 (DTP/NCI, 2004):
“And” between values parts separate entries of the source, which are not always exact repeats. Identical values can stand only once. Toxic doses and inconclusive results are not listed. Cut-off read from the data, not from the text of the source: active = T/C of 150% or more; inactive = T/C below 125%.

Tested on: L1210 leukemia ip in BDF1 mice, survival T/C
Test: NCI In Vivo Anticancer Drug Screen. Data for tumor model L1210 Leukemia (intraperitoneal) in B6D2F1 (BDF1) mice
Conditions: endpoint: mean survival time, higher = longer survival
Outline: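 Tumor was transplanted into mice, which were then dosed with test compound or vehicle alone. Survival was recorded for each group, and the treated figure was expressed relative to the control figure.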

[1] = dose: 100.0 mg/kg/injection, schedule: Q04DX003 (ip), vehicle: Klucel (hydroxypropylcellulose) (HPC)
[2] = dose: 200.0 mg/kg/injection, schedule: Q04DX003 (ip), vehicle: Klucel (hydroxypropylcellulose) (HPC)
[3] = dose: 100.0 mg/kg/injection, schedule: Q01DX009 (ip), vehicle: Klucel (hydroxypropylcellulose) (HPC)
[4] = dose: 200.0 mg/kg/injection, schedule: Q01DX009 (ip), vehicle: Klucel (hydroxypropylcellulose) (HPC)
[5] = dose: 400.0 mg/kg/injection, schedule: Q01DX009 (ip), vehicle: Klucel (hydroxypropylcellulose) (HPC)
[6] = dose: 400.0 mg/kg/injection, schedule: Q04DX003 (ip), vehicle: Klucel (hydroxypropylcellulose) (HPC)
[7] = dose: 100.0 mg/kg/injection, schedule: Q01DX001 (ip), vehicle: saline
[8] = dose: 100.0 mg/kg/injection, schedule: Q04DX003 (ip), vehicle: saline with Tween-80
[9] = dose: 200.0 mg/kg/injection, schedule: Q01DX001 (ip), vehicle: saline
[10] = dose: 200.0 mg/kg/injection, schedule: Q04DX003 (ip), vehicle: saline with Tween-80
[11] = dose: 400.0 mg/kg/injection, schedule: Q01DX001 (ip), vehicle: saline
[12] = dose: 400.0 mg/kg/injection, schedule: Q04DX003 (ip), vehicle: saline with Tween-80
[13] = dose: 25.0 mg/kg/injection, schedule: Q01DX009 (ip), vehicle: saline with Tween-80

Measured: T/C

O=C(CCl)Nc1c(Cl)cc(Cl)cc1Cl
inactive: dose: 50.0 mg/kg/injection, schedule: Q04DX003 (ip), vehicle: Klucel (hydroxypropylcellulose) (HPC) 97 % of control | dose: 100.0 mg/kg/injection, schedule: Q01DX001 (ip), vehicle: Klucel (hydroxypropylcellulose) (HPC) 103 % of control | [1] 90 % of control | dose: 200.0 mg/kg/injection, schedule: Q01DX001 (ip), vehicle: Klucel (hydroxypropylcellulose) (HPC) 98 % of control | [2] 93 % of control | dose: 400.0 mg/kg/injection, schedule: Q01DX001 (ip), vehicle: Klucel (hydroxypropylcellulose) (HPC) 103 % of control

O=C(NCc1ccc(Cl)c(Cl)c1)Nc1ccccc1Cl
inactive: [3] 97 % of control | [4] 100 % of control | [5] 103 % of control

O=C(O)CN1C(=O)c2cccc([N+](=O)[O-])c2C1=O
inactive: [3] 100 % of control | [4] 100 % of control | [5] 101 % of control

CCCCCCCCCN1CCCC(C)C1 (stereo unspecified)
inactive: dose: 12.5 mg/kg/injection, schedule: Q04DX002 (ip), vehicle: Klucel (hydroxypropylcellulose) (HPC) 93 % of control | dose: 25.0 mg/kg/injection, schedule: Q04DX002 (ip), vehicle: Klucel (hydroxypropylcellulose) (HPC) 97 % of control | dose: 50.0 mg/kg/injection, schedule: Q04DX002 (ip), vehicle: Klucel (hydroxypropylcellulose) (HPC) 101 % of control

Cc1cccc(NC(=O)c2cccc(C(=O)Nc3cccc(C)c3C)c2)c1C
inactive: [3] 96 % of control | [1] 88 % of control | [4] 100 % of control | [2] 88 % of control | [5] 96 % of control | [6] 93 % of control

Nc1nc(=O)c2ccccc2s1
inactive: [7] 97 % of control | [8] 101 % of control | [9] 98 % of control | [10] 108 % of control | [11] 97 % of control | [12] 106 % of control

CC(C)(C)S(=O)(=O)c1nc2ccccc2s1
inactive: [1] 93 % of control | [2] 107 % of control | [6] 90 % of control

CS(=O)(=O)c1nc2ccccc2[nH]1
inactive: dose: 100.0 mg/kg/injection, schedule: Q04DX002 (ip), vehicle: Klucel (hydroxypropylcellulose) (HPC) 105 % of control | dose: 200.0 mg/kg/injection, schedule: Q04DX002 (ip), vehicle: Klucel (hydroxypropylcellulose) (HPC) 97 % of control

NC(CSS(=O)(=O)O)=NCc1cccs1
inactive: dose: 12.5 mg/kg/injection, schedule: Q01DX009 (ip), vehicle: saline with Tween-80 103 % of control | [13] 96 % of control

CC1NC=NC1C(c1ccccc1)c1ccccc1 (stereo unspecified)
inactive: [8] 101 % of control

CC1(c2ccccc2)CC(c2ccccc2)=C(C#N)C(=O)N1 (stereo unspecified)
inactive: [7] 98 % of control | [9] 91 % of control | [11] 104 % of control

CSc1ccc(OC(=O)Nc2ccccc2[N+](=O)[O-])cc1C
inactive: [3] 109 % of control | [4] 94 % of control | [5] 92 % of control

COc1cc(-c2nc(-c3ccc(N=Cc4ccc(N(CCOS(C)(=O)=O)CCOS(C)(=O)=O)cc4C)cc3)cs2)cc(OC)c1OC
inactive: dose: 25.0 mg/kg/injection, schedule: Q04DX003 (ip), vehicle: saline with Tween-80 102 % of control | dose: 50.0 mg/kg/injection, schedule: Q04DX003 (ip), vehicle: saline with Tween-80 102 % of control | dose: 66.0 mg/kg/injection, schedule: Q04DX003 (ip), vehicle: saline with Tween-80 115 % of control and 120 % of control | dose: 150.0 mg/kg/injection, schedule: Q04DX003 (ip), vehicle: saline with Tween-80 96 % of control and 89 % of control | [10] 110 % of control

O=[N+]([O-])c1cc2c3ccccc3c(F)cc2c2ccccc12
inactive: [3] 98 % of control | [1] 96 % of control | [4] 98 % of control | [2] 91 % of control | [5] 98 % of control | [6] 101 % of control

CC1C(C(=O)O)CC([N+](=O)[O-])C(Cl)C1[N+](=O)[O-] (stereo unspecified)
inactive: dose: 25.0 mg/kg/injection, schedule: Q01DX001 (ip), vehicle: carboxymethylcellulose (CMC) 92 % of control | dose: 25.0 mg/kg/injection, schedule: Q04DX003 (ip), vehicle: carboxymethylcellulose (CMC) 95 % of control | dose: 50.0 mg/kg/injection, schedule: Q01DX001 (ip), vehicle: carboxymethylcellulose (CMC) 97 % of control | dose: 50.0 mg/kg/injection, schedule: Q01DX009 (ip), vehicle: carboxymethylcellulose (CMC) 95 % of control and 102 % of control | dose: 50.0 mg/kg/injection, schedule: Q04DX003 (ip), vehicle: carboxymethylcellulose (CMC) 98 % of control | dose: 100.0 mg/kg/injection, schedule: Q01DX001 (ip), vehicle: carboxymethylcellulose (CMC) 102 % of control | dose: 100.0 mg/kg/injection, schedule: Q01DX009 (ip), vehicle: carboxymethylcellulose (CMC) 90 % of control | dose: 100.0 mg/kg/injection, schedule: Q04DX002 (ip), vehicle: carboxymethylcellulose (CMC) 101 % of control and 91 % of control | dose: 100.0 mg/kg/injection, schedule: Q04DX003 (ip), vehicle: carboxymethylcellulose (CMC) 102 % of control | dose: 200.0 mg/kg/injection, schedule: Q04DX002 (ip), vehicle: carboxymethylcellulose (CMC) 92 % of control and 105 % of control

Clc1ccccc1C=Nc1cccc2ccccc12
inactive: [3] 121 % of control | [4] 104 % of control | [5] 107 % of control

CCOC(=O)c1cc(Cl)c2ccccc2n1
inactive: [7] 96 % of control | [9] 98 % of control | [11] 96 % of control

CC(=O)OCC1OC(SSc2ccccc2)C(OC(C)=O)C(OC(C)=O)C1OC(C)=O (stereo unspecified)
inactive: [7] 98 % of control | [9] 89 % of control | [11] 89 % of control

O=C(NC(=S)NNC(=S)NNc1ccccc1)c1ccccc1
inactive: dose: 12.5 mg/kg/injection, schedule: Q04DX002 (ip), vehicle: saline with Tween-80 101 % of control | [13] 102 % of control | dose: 25.0 mg/kg/injection, schedule: Q04DX002 (ip), vehicle: saline with Tween-80 107 % of control and 90 % of control | dose: 50.0 mg/kg/injection, schedule: Q01DX009 (ip), vehicle: saline with Tween-80 115 % of control | dose: 50.0 mg/kg/injection, schedule: Q04DX002 (ip), vehicle: saline with Tween-80 108 % of control | dose: 100.0 mg/kg/injection, schedule: Q04DX002 (ip), vehicle: saline with Tween-80 96 % of control and 101 % of control and 110 % of control | dose: 200.0 mg/kg/injection, schedule: Q04DX002 (ip), vehicle: saline with Tween-80 108 % of control

N#CCCOc1ccccc1
inactive: [7] 108 % of control | [9] 108 % of control | [11] 104 % of control

O=C(O)c1c2ccccc2cc2ccccc12
inactive: [3] 105 % of control | [4] 107 % of control | [5] 104 % of control

O=[N+]([O-])c1ccc(N/N=C(\Cc2ccccc2)c2ccccc2)c([N+](=O)[O-])c1
inactive: [8] 91 % of control | [10] 91 % of control | [12] 87 % of control

COC1C(N)C(O)OC(CO)C1O (stereo unspecified)
inactive: [7] 99 % of control | [9] 103 % of control | [11] 94 % of control

NCCCC(=O)NC(Cc1cnc[nH]1)C(=O)O (stereo unspecified)
inactive: [7] 95 % of control | [9] 97 % of control | [11] 92 % of control

CC1(C)C=C(C(N)=O)C(C)(C)N1O
inactive: dose: 50.0 mg/kg/injection, schedule: Q01DX009 (ip), vehicle: other 98 % of control | dose: 100.0 mg/kg/injection, schedule: Q01DX009 (ip), vehicle: other 101 % of control | dose: 200.0 mg/kg/injection, schedule: Q01DX009 (ip), vehicle: other 95 % of control
